Values quoted from earlier work as cited in patent US20210393580A1, “PROCYANIDINS FOR THE TREATMENT OF ENDOTHELIAL DYSFUNCTION TRIGGERED BY COVID-19” (priority 2020, published 2021).

Key:
[1] = system: wild-type severe acute respiratory syndrome coronavirus (wtSARS-CoV); conditions: compounds fractionated from CC; for IC50: read-out: IC50, anti-wtSARS-CoV activity
[2] = system: iNOS (inducible nitric oxide synthase)
[3] = system: SARS proteases, spike protein and nonstructural proteins (NSP-9, 15); conditions: Autodock vina; hydrogen bonds with active site residues, low binding energy

| SMILES | interaction with the SARS viral proteins [3] | further results |
| --- | --- | --- |
| Oc1cc(O)c2c(c1)O[C@@]1(c3ccc(O)c(O)c3)Oc3cc(O)c4c(c3[C@@H]2[C@H]1O)O[C@H](c1ccc(O)c(O)c1)[C@H](O)C4 [procyanidin A2] |  | SI, anti-wtSARS-CoV activity [1]: 37.35; IC50 [1]: 29.9 ± 3.3 µM |
| Oc1cc(O)c2c(c1)O[C@H](c1ccc(O)c(O)c1)[C@H](O)[C@H]2c1c(O)cc(O)c2c1O[C@H](c1ccc(O)c(O)c1)[C@@H](O)C2 [procyanidin B1] |  | SI, anti-wtSARS-CoV activity [1]: 15.69; IC50 [1]: 41.3 ± 3.4 µM |
| O=C1CCC(Cc2ccc(O)c(O)c2)O1 (stereo not drawn) [M1, δ-(3,4-dihydroxy-phenyl)-γ-valerolactone] |  | excessive nitrite production [2]: reducing; iNOS expression [2]: reducing iNOS (inducible nitric oxide synthase) expression |
| Cc1cc(O)c(C(C)C)cc1O [thymohydroquinone] | significant interaction |  |
| CC(C)c1cc2c(c(O)c1O)[C@@]13CCCC(C)(C)[C@@H]1[C@H](OC3=O)[C@H]2O [rosmanol] | significant interaction |  |
| O=c1c(-c2ccc(O)cc2)coc2cc(O)cc(O)c12 [genistein] | significant interaction |  |
| CCc1oc(=O)c(Cc2c(O)c(CC=C(C)C)c(O)c(C(C)=O)c2O)c(O)c1C [arzanol] | significant interaction |  |
| Oc1ccc(C=Cc2cc(O)cc(O)c2)cc1 [resveratrol] | significant interaction |  |
| COc1cc(/C=C/C(=O)O)ccc1O [ferulic acid] | significant interaction |  |
